Where a SMILES comes first, the peptide text is derived from it.

Consider one compound from publication PMC11928584, “H105A peptide eye drops promote photoreceptor survival in murine and human models of retinal degeneration” (Communications Medicine, 2025).

Data set [1] in a line: Localization of H105A in retina by anti-H105A immunofluorescence. The class given is in vivo. To be noted: RhoP23H/+ mice, daily eye drops P14-P19, anti-H105A immunofluorescence. On the procedure: To detect the transduced H105A peptide, we used a custom-made monoclonal recombinant Fab antibody raised against H105A (Bio-Rad AbD Serotec GmbH, Puchheim, Germany). The custom-made antibodies were produced by HuCAL® technology with a FLAG-tag for detection. […] Cells were maintained in DMEM 4.5 g/l (Thermo Fisher Scientific, cat. 11960), supplemented with 10% fetal bovine serum (FBS), 100 U/ml penicillin and 100 µg/ml streptomycin (Thermo Fisher Scientific, cat. 15140148) in 5% CO2 and at 37 °C. […] The specificity of the custom antibody to the H105A peptide was assessed by pre-incubation with 400 µM H105A peptide at 25 °C for 1 h before using it for immunodetection. […]
Daily eye-drop-delivered H105A between P14 and P19 penetrated the retina, reached the photoreceptors, and w a s detected throughout the retina, mostly in the IS/OS ( c). […]
(g-i) Negative controls for immunostaining. No staining was detected in untreated Rho P23H/+ retinas at P 19 (g), in sections where the antibody was pre-incubated with 400 µM H105A peptide for one hour (Panel h), or in sections without the primary antibody (i). […]

Data set [2] concerns retinal function of rd10 mice. The experiment in a line: Electroretinogram (scotopic a- and b-wave), rd10 mice. The class given is in vivo, mouse. Here is the method: Electroretinogram (ERG) for rd10 and rd10/Serpinf1^-/- mice were dark-adapted overnight and recorded in both eyes of each animal using an Espion E2 system with ColorDome (Diagnosys LLC) with a heated surface. Briefly, pupils were dilated with 1% tropicamide (Akorn, NDC: 17478-101-12) for 10 min and mice were anesthetized with intraperitoneal injection of Zetamine™ (Ketamine hydrochloride injection, USP; VetOne, NDC 13985-584-10) at 92.5 mg/kg, and AnaSed® (xylazine injection, Akorn Pharmaceuticals, NDC 59399-110-20) at 5.5 mg/kg. Mice were placed on the heated surface and electrodes were placed in the mouth and a subdermal platinum needle electrode was placed in the back of the mouse to serve as ground. Responses were elicited with increasing light impulses with intensity from 0.0001 to 10 cd-seconds per meter squared (cd.s/m^2). Amplitudes for a-wave were measured from stimulus to the trough of the a-wave and b-wave amplitudes were measured from a-wave to b-wave trough or peak. The values from the a and b waves for both eyes were exported to Microsoft Excel to obtained amplitude values for each mouse.
Fig. 5 Effect of daily eyedrops of PEDF peptides on ERG a-wave and b-wave retinal function. a Illustration of the experimental timeline of peptide application. RE and LE refer to the right and left eyes, respectively. Representative ERG waveforms for rd10 (b) and rd10/Serpinf1^-/- (c) mice at P21 in response to a light flash (1 cd.s/m²). Amplitude (y-axis) is plotted against time in milliseconds (ms, x-axis). Treatments are indicated to the right of each plot and are color coded, with control wild type C57BL/6 J mice without peptide treatment shown in blue. A-wave and b-wave are indicated by arrows. Photoreceptor a-wave amplitudes. Averages of photoreceptor a-wave amplitudes for rd10 (d) and rd10/Serpinf1^-/- (e) mice as a function of light intensity (cd/s.m², x-axis). Responses of animals treated with 17-mer are shown in green, H105A in black, and vehicle (HBSS) in red. Wildtype responses are shown in blue. Bipolar cell b-wave amplitudes. Averages of bipolar cell b-wave amplitudes for rd10 (f) and rd10/Serpinf1^-/- (g) mice as a function of light intensity (cd/s.m², x-axis), with treatments as indicated in panels. The number of mice evaluated for the data shown in Panels d-g was five (n = 5) for each rd10, rd10/Serpinf1^-/- and wild type. Each data point represents the average ± SD of each genotype, analyzed by ANOVA with Dunnett’s multiple comparisons. Statistical significance between H105A and vehicle is indicated by ##p ≤ 0.01, ###p ≤ 0.001, ####p ≤ 0.0001, and between H105A and 17-mer by **p ≤ 0.01, ***p ≤ 0.001, ****p ≤ 0.0001.

For data set [3], the system named is photoreceptors of RhoP23H/+ mice. The experiment in a line: ONL thickness (DAPI sections, spider plot), RhoP23H/+ mice. It is filed as in vivo, mouse. To be noted: daily eye drops 1 mg/ml P14-P19, P19, ventral retina.
Method: After embedding in paraffin, 14 μm sections were collected. […] Cone photoreceptors were labeled with anti-Opsin Blue (Merck, cat. AB5407) and anti-Opsin Red/Green (Merck, cat. AB5405). […] For nuclear staining, 0.1 μg/ml DAPI was used. Slides were mounted with Mowiol 4–88 (Merck) and images acquired with a Zeiss Axio Imager A2 fluorescence microscope. To count TUNEL positive cells the RETINA Analysis Tool kit for ImageJ was used[37].
To generate spider plots, the ONL thickness was measured from images passing through the optic nerve (ON) acquired with light microscopy of the retina sections stained with H&E or images of retina sections stained with DAPI with a dorsal-ventral orientation. The ONL thickness in the entire retina sections was measured at 5 different positions from both sides of the ON using ImageJ[28]. Alternatively, for DAPI stained images, a customed macro implemented in ImageJ was used to select only the ONL.
Fig. 6 Effects of eye drops containing H105A peptide in the photoreceptors of Rho^P23H/+ mice. a Scheme of experimental design. Daily peptide eye drops (5 µl of 1 mg/ml peptide) were applied to mice starting at P14 until P19 when immunofluorescence of retinal cross sections was performed. […] Histograms show quantification of immunofluorescence intensity for BAX and BCL2 markers. Five retinas per group were analyzed, with two sections per retina. […]
The mark [4] stands for this setting: eye drops every other day P15-P23, ERG at P25.

In the case of `CC[C@H](C)[C@H](NC(=O)[C@H](CC(C)C)NC(=O)[C@H](CC(=O)O)NC(=O)[C@H](Cc1ccc(O)cc1)NC(=O)[C@H](Cc1ccc(O)cc1)NC(=O)[C@H](CC(C)C)NC(=O)[C@H](C)NC(=O)[C@H](CCCNC(=N)N)NC(=O)[C@H](C)NC(=O)[C@@H](NC(=O)[C@@H](NC(=O)[C@H](CO)NC(=O)[C@H](CCC(=O)O)NC(=O)[C@@H](NC(=O)[C@H](CCCNC(=N)N)NC(=O)[C@@H](N)CCC(N)=O)[C@@H](C)O)[C@@H](C)CC)[C@@H](C)CC)C(=O)N[C@@H](CO)C(=O)O` [H105A] (H-QRTESIIARALYYDLIS-OH), the “localization of H105A in retina” value in data set [1] is “reaching the photoreceptors”. For the same compound, the “ERG response to low intensity light” value in data set [2] (daily eye drops 5 µl of 1 mg/ml P15-P24, ERG at P25) is “improved rod photoreceptor function”. Also, in data set [2] (setting [4]), the “ERG a-wave” value is on record as “an improvement in a-wave of ERG” and the “ERG b-wave” value is “no significant effect”. In addition, the “function of rd10 photoreceptors” value in data set [2] (eye drops every other day, endpoint extended to P25) is recorded as “improved the function of rd10 photoreceptors”. For the same compound, the “ONL thickness” value in data set [3] is listed as “preservation of ONL thickness”.
